Reference: patent US10669268B2, “Bicyclic derivatives” (Hoffmann-La Roche Inc., priority 2012, dated 2020)

Biological target: ATX (human His-tagged) (Homo sapiens (Human), UniProt Q13822)
Assay: Human ATX enzyme inhibition assay (fluorescence quenching, MR121 substrate)
Assay type: biochemical
Settings: 30 nM ATX, 1 μM MR121 substrate, 30° C., pH 8.0
Description: Human ATX Enzyme Inhibition Assay
Assay working solutions were made as follows:
Assay buffer (50 mM Tris-HCl, 140 mM NaCl, 5 mM KCl, 1 mM CaCl2, 1 mM MgCl2, 0.01% Triton-X-100, pH 8.0;
MR121 substrate solution: MR121 substrate stock solution (800 μM MR121 substrate in DMSO), diluted to 2-5× final concentration in assay buffer.
10 μL of MR121 substrate solution was added (1 μM final concentration), mixed 30 times and then incubated for 15 minutes at 30° C.

Structure (SMILES)	IC50 [µM]
O=C(OCc1cc(Cl)cc(Cl)c1)N1CC[C@@H]2CN(C(=O)c3ccc4[nH]nnc4c3)C[C@H]2C1 (relative stereo) [Example 1.09, trans-3,5-dichlorobenzyl 2-(1H-benzo[d][1,2,3]triazole-5-carbonyl)hexahydro-1H-pyrrolo[3,4-c]pyridine-5(6H)-carboxylate]	0.009
O=C(OCc1cc(Cl)cc(Cl)c1)N1CC[C@H]2CN(C(=O)c3ccc4[nH]nnc4c3)C[C@H]2C1 (relative stereo) [Example 1.10, cis-3,5-dichlorobenzyl 2-(1H-benzo[d][1,2,3]triazole-5-carbonyl)hexahydro-1H-pyrrolo[3,4-c]pyridine-5(6H)-carboxylate]	0.078
CS(=O)(=O)c1cc(Cl)cc(COC(=O)N2CC[C@@H]3CN(C(=O)c4ccc5[nH]nnc5c4)C[C@H]3C2)c1 (relative stereo) [Example 1.23, trans-2-(1H-benzotriazole-5-carbonyl)-octahydro-pyrrolo[3,4-c]pyridine-5-carboxylic acid 3-chloro-5-methanesulfonyl-benzyl ester]	0.058
O=C(OCc1ccc(OC(F)(F)F)cc1)N1CC[C@@H]2CN(C(=O)c3ccc4[nH]nnc4c3)C[C@H]2C1 (relative stereo) [Example 1.24, trans-2-(1H-benzotriazole-5-carbonyl)-octahydro-pyrrolo[3,4-c]pyridine-5-carboxylic acid 4-trifluoromethoxy-benzyl ester]	0.013
O=C(COc1ccc(OC(F)(F)F)cc1)N1CC[C@@H]2CN(C(=O)c3ccc4[nH]nnc4c3)C[C@H]2C1 (relative stereo) [Example 1.25, 1-[trans-2-(1H-benzotriazole-5-carbonyl)-octahydro-pyrrolo[3,4-c]pyridin-5-yl]-2-(4-trifluoromethoxy-phenoxy)-ethanone]	0.114
O=C(OCc1ccc(F)cc1C(F)(F)F)N1CC[C@@H]2CN(C(=O)c3ccc4[nH]nnc4c3)C[C@H]2C1 (relative stereo) [Example 1.30, trans-2-(1H-benzotriazole-5-carbonyl)-octahydro-pyrrolo[3,4-c]pyridine-5-carboxylic acid 4-fluoro-2-trifluoromethyl-benzyl ester]	0.02
O=C(OCc1ccc(C(F)(F)F)cc1C1CC1)N1CC[C@@H]2CN(C(=O)c3ccc4[nH]nnc4c3)C[C@H]2C1 (relative stereo) [Example 1.31, trans-2-(1H-benzotriazole-5-carbonyl)-octahydro-pyrrolo[3,4-c]pyridine-5-carboxylic acid 2-cyclopropyl-4-trifluoromethyl-benzyl ester]	0.021
COc1cc(OC(F)(F)F)ccc1COC(=O)N1CC[C@@H]2CN(C(=O)c3ccc4[nH]nnc4c3)C[C@H]2C1 (relative stereo) [Example 1.33, trans-2-(1H-benzotriazole-5-carbonyl)-octahydro-pyrrolo[3,4-c]pyridine-5-carboxylic acid 2-methoxy-4-trifluoromethoxy-benzyl ester]	0.021
O=C(OCc1cc(Cl)cc(Cl)c1)N1CC[C@@H]2CN(C(=O)c3ccc4[nH]c(=O)oc4c3)C[C@H]2C1 (relative stereo) [Example 2, trans-3,5-Dichlorobenzyl 2-(2-oxo-2,3-dihydrobenzo[d]oxazole-6-carbonyl)hexahydro-1H-pyrrolo[3,4-c]pyridine-5(6H)-carboxylate]	0.01
CS(=O)(=O)c1cc(COC(=O)N2C[C@H]3CCN(C(=O)c4ccc5[nH]nnc5c4)C[C@@H]3C2)cc(C(F)(F)F)c1 (relative stereo) [Example 4.01, trans-5-(1H-benzotriazole-5-carbonyl)-octahydro-pyrrolo[3,4-c]pyridine-2-carboxylic acid 3-methanesulfonyl-5-trifluoromethyl-benzyl ester]	0.041
O=C(OCc1cc(Cl)cc(Cl)c1)N1C[C@@H]2CCN(C(=O)c3ccc4[nH]nnc4c3)C[C@@H]2C1 (relative stereo) [Example 4.08, cis-3,5-dichlorobenzyl 5-(1H-benzo[d][1,2,3]triazole-5-carbonyl)hexahydro-1H-pyrrolo[3,4-c]pyridine-2(3H)-carboxylate]	0.047
O=C(OCc1cc(Cl)cc(Cl)c1)N1C[C@H]2CCN(C(=O)c3ccc4[nH]nnc4c3)C[C@@H]2C1 (relative stereo) [Example 4.10, trans-3,5-dichlorobenzyl 5-(1H-benzo[d][1,2,3]triazole-5-carbonyl)hexahydro-1H-pyrrolo[3,4-c]pyridine-2(3H)-carboxylate]	0.004
O=C(OCc1cc(Cl)cc(Cl)c1)N1C[C@H]2CCN(C(=O)c3ccc4[nH]nnc4c3)C[C@@H]2C1 (relative stereo) [Example 12A, trans-3,5-dichlorobenzyl 5-(1H-benzo[d][1,2,3]triazole-5-carbonyl)-hexahydro-lH-pyrrolo[3,4-c]pyridine-2(3H)-carboxylate]	0.011
O=C(OCc1cc(Cl)cc(Cl)c1)N1C[C@H]2CCN(C(=O)c3ccc4[nH]nnc4c3)C[C@@H]2C1 (relative stereo) [Example 12B, trans-3,5-dichlorobenzyl 5-(1H-benzo[d][1,2,3]triazole-5-carbonyl)-hexahydro-lH-pyrrolo[3,4-c]pyridine-2(3H)-carboxylate]	0.005
O=C(/C=C/c1cc(Cl)cc(Cl)c1)N1CC[C@@H]2CN(C(=O)c3ccc4[nH]nnc4c3)C[C@H]2C1 (relative stereo) [Example 13, (E)-1-[trans-2-(1H-Benzotriazole-5-carbonyl)-octahydro-pyrrolo[3,4-c]pyridin-5-yl]-3-(3,5-dichloro-phenyl)-prop-2-en-1-one]	0.057
O=C(c1ccc2[nH]nnc2c1)N1CC[C@@H]2CN(c3nnc(-c4ccc(Cl)cc4)o3)C[C@H]2C1 (relative stereo) [Example 14, (1H-Benzotriazol-5-yl)-{trans-2-[5-(4-chloro-phenyl)-[1,3,4]oxadiazol-2-yl]-octahydro-pyrrolo[3,4-c]pyridin-5-yl}-methanone]	0.926
O=C(CCc1ccc(OC(F)(F)F)cc1)N1CC[C@@H]2CN(C(=O)c3ccc4[nH]nnc4c3)C[C@H]2C1 (relative stereo) [Example 17.15, 1-[trans-2-(1H-benzotriazole-5-carbonyl)-octahydro-pyrrolo[3,4-c]pyridin-5-yl]-3-(4-trifluoromethoxy-phenyl)-propan-1-one]	0.047
O=C(CCc1ccc(OC(F)(F)F)cc1)N1CC[C@@H]2CN(Cc3ccc4[nH]nnc4c3)C[C@H]2C1 (relative stereo) [Example 17.16, 1-[trans-2-(1H-benzotriazol-5-ylmethyl)-octahydro-pyrrolo[3,4-c]pyridin-5-yl]-3-(4-trifluoromethoxy-phenyl)-propan-1-one]	0.309
O=C(OCc1cc(Cl)cc(Cl)c1)N1CC[C@@H]2CN(C(=O)c3ccc4[nH]nnc4c3)C[C@H]2C1 (single isomer, unassigned) [Example 11A, trans-3,5-dichlorobenzyl 2-(1H-benzo[d][1,2,3]triazole-5-carbonyl)-hexahydro-1H-pyrrolo[3,4-c]pyridine-5(6H)-carboxylate]	0.022
O=C(OCc1cc(Cl)cc(Cl)c1)N1CC[C@@H]2CN(C(=O)c3ccc4[nH]nnc4c3)C[C@H]2C1 (single isomer, unassigned) [Example 11B, trans-3,5-dichlorobenzyl 2-(1H-benzo[d][1,2,3]triazole-5-carbonyl)-hexahydro-1H-pyrrolo[3,4-c]pyridine-5(6H)-carboxylate]	0.009
O=C(/C=C/c1ccc(OC(F)(F)F)cc1)N1C[C@H]2CCN(C(=O)c3ccc4[nH]nnc4c3)C[C@@H]2C1 (single isomer, unassigned) [Example 15.25]	0.044
O=C(/C=C/c1ccc(OC(F)(F)F)cc1)N1C[C@@H]2CN(C(=O)c3ccc4[nH]nnc4c3)CC[C@H]2C1 (single isomer, unassigned) [Example 15.26]	0.008
O=C(/C=C/c1ccc(OC(F)F)cc1)N1C[C@H]2CCN(C(=O)c3ccc4[nH]nnc4c3)C[C@@H]2C1 (single isomer, unassigned) [Example 15.32]	0.019
N#Cc1ccc(/C=C/C(=O)N2C[C@H]3CCN(C(=O)c4ccc5[nH]nnc5c4)C[C@@H]3C2)cc1 (single isomer, unassigned) [Example 15.33]	0.328
O=C1NC2CCC(C(=O)N3CC4CCN(C(=O)/C=C/c5ccc(OC(F)(F)F)cc5)CCC4C3)CC2O1 (stereo in doubt) [Example 1.16, (3aSR,6SR,7aSR)-6-{(3aR,8aS)-6-[(E)-3-(4-trifluoromethoxy-phenyl)-acryloyl]-octahydro-pyrrolo[3,4-d]azepine-2-carbonyl}-hexahydro-benzooxazol-2-one]	0.382
O=C(c1ccc(-c2ccc(Cl)cc2)cc1)N1C[C@H]2CN(C(=O)c3ccc4[nH]nnc4c3)C[C@@H]2C1 (stereo in doubt) [Example 19.13, (1H-benzotriazol-5-yl)-[(3aS,6aS)-5-(4′-chloro-biphenyl-4-carbonyl)-hexahydro-pyrrolo[3,4-c]pyrrol-2-yl]-methanone]	0.01
O=C(/C=C/c1ccc(OC(F)(F)F)cc1)N1CC[C@@H]2CN(C(=O)C3CCc4[nH]nnc4C3)C[C@@H]2CC1 (stereo partly drawn) [Example 1, (E)-1-[(3aS,8aR)-2-(4,5,6,7-Tetrahydro-1H-benzotriazole-5-carbonyl)-octahydro-pyrrolo[3,4-d]azepin-6-yl]-3-(4-trifluoromethoxy-phenyl)-prop-2-en-1-one]	0.008
O=C(CCc1cc(Cl)cc(Cl)c1)N1C[C@@H]2CN(C(=O)c3ccc4[nH]nnc4c3)C[C@@H]2C1 [Example 1.01, 1-((3aR,6aS)-5-(1H-benzo[d][1,2,3]triazole-5-carbonyl)hexahydropyrrolo[3,4-c]pyrrol-2(1H)-yl)-3-(3,5-dichlorophenyl)propan-1-one]	0.035
